# Read-outs that look alike come from different tables or passages of the source.
# Tests used:
# [1] = tested on: Escherichia coli (Ec); experiment: MIC for Escherichia coli, nutrient agar; assay type: cell-based, Escherichia coli ATCC 11229
# Method: (§1) The minimum inhibitory concentration (MIC) for the compounds listed in Table I is determined for 9 bacteria, using nutrient agar; and 7 yeast and fungi, using malt yeast agar. A one percent solution of the test compound is prepared in a mixture of acetone and water.
# (§2) Nutrient agar is prepared at pH 6.8, representing a neutral medium, and at pH 8.2, representing an alkaline medium. The nutrient agars are prepared by adding 23 g of nutrient agar to one-liter of deionized water. In addition, the alkaline medium is prepared by adjusting a 0.04M solution of N-[tris-(hydroxymethyl)methyl]-glycine buffered deionized water with concentrated sodium hydroxide to a pH of 8.5.
# (§3) The test tubes containing the malt yeast agar and the nutrient agar are cooled in a water bath until the temperature of the agar is 48° C. Then, an appropriate amount of the one percent solution of the test compound is added (except in the controls where no compound is added) to the respective test tubes so that the final concentrations are zero (0), 1.0, 2.5, 5, 10, 25, 50, 100, 250 and 500 parts per million of the test compound in each of the respective type of agar. The contents of each of the test tubes are then transferred to separate petri plates. After drying for 24 hours, the petri plates containing nutrient agar are inoculated with bacteria and those containing malt yeast agar are inoculated with yeast and fungi.
# (§4) The inoculation with bacteria is accomplished by using the following procedure. Twenty-four hour-cultures of each of the bacteria are prepared by incubating the respective bacteria in tubes containing nutrient broth for 24 hours at 30° C. in a shaker. Dilutions of each of the 24 hour-cultures are made so that nine separate suspensions (one for each of the nine test bacteria) are made, each containing 10^8 colony forming units (CFU) per mL of suspension of a particular bacteria. Aliquots of 0.3 mL of each of the bacterial suspensions are used to fill the individual wells of Steer's Replicator. For each microbial suspension, 0.3 mL was used to fill three wells (i.e., three wells of 0.3 mL each) so that for the nine different bacteria, 27 wells are filled. The Steer's Replicator is then used to inoculate both the neutral and alkaline pH nutrient agar petri plates.
# (§5) The inoculated petri plates are incubated at 30° C. for 48 hours and then read to determine if the test compound which is incorporated into the agar prevented growth of the respective bacteria.
# (§6) Table II list the bacteria, yeast and fungi used in the MIC test described above along with their respective American Type Culture Collection (ATCC) identification numbers.
# [2] = tested on: Staphylococcus aureus (Sa); experiment: MIC for Staphylococcus aureus, nutrient agar; assay type: cell-based, Staphylococcus aureus ATCC 6538
# Method: as §1, §2, §3, §4, §5, §6
# [3] = tested on: Penicillium chrysogenum (Pc); experiment: MIC for Penicillium chrysogenum, malt yeast agar; assay type: cell-based, Penicillium chrysogenum ATCC 9480; conditions: read-out: Minimum Inhibitory Concentration (MIC), PC
# Method: as §1
# (§7) Malt yeast agar is prepared by adding 3 g yeast extract and 45 g malt agar per liter of deionized water. The specific agar is dispensed in 30 mL aliquots into 25×200 mm test tubes, capped and autoclaved for 15 minutes at 115° C.
# as §3
# (§8) The inoculation with the yeast and fungi is accomplished as follows. Cultures of yeast and fungi are incubated for seven days on malt yeast agar at 30° C. These cultures are used to prepare suspensions by the following procedure. A suspension of each organism is prepared by adding 10 mL of sterile saline and 10 microliters of octylphenoxy polyethoxy ethanol to the agar slant of yeast or fungi. The sterile saline/octylphenoxy polyethoxy ethanol solution is then agitated with a sterile swab to suspend the microorganism grown on the slant. Each resulting suspension is diluted into sterile saline (1 part suspension: 9 parts sterile saline). Aliquots of these dilutions are placed in individual wells of Steer's Replicator and petri plates inoculated as previously described. The petri plates are incubated at 30° C. and read after 48 hours for yeast and 72 hours for fungi.
# as §6
# [4] = tested on: Candida albicans (Ca); experiment: MIC for Candida albicans, malt yeast agar; assay type: cell-based, Candida albicans ATCC 10231; conditions: read-out: Minimum Inhibitory Concentration (MIC), Ca
# Method: as §1, §7, §3, §8, §6
# [5] = tested on: Proteus vulgaris (Pv); experiment: MIC for Proteus vulgaris, nutrient agar; assay type: cell-based, Proteus vulgaris ATCC 881
# Method: as §1, §2, §3, §4, §5, §6
# [6] = tested on: Pseudomonas aeruginosa (Pa); experiment: MIC for Pseudomonas aeruginosa, nutrient agar; assay type: cell-based, Pseudomonas aeruginosa ATCC 10145; conditions: 48 hours, read-out: Minimum Inhibitory Concentration (MIC), Pa
# Method: as §1, §2, §3, §4, §5, §6
# [7] = tested on: Enterobacter aerogenes (Ea); experiment: MIC for Enterobacter aerogenes, nutrient agar; assay type: cell-based, Enterobacter aerogenes ATCC 13048; conditions: Klebsiella aerogenes
# Method: as §1, §2, §3, §4, §5, §6
# [8] = tested on: Salmonella choleraesuis; experiment: MIC for Salmonella choleraesuis, nutrient agar; assay type: cell-based, Salmonella choleraesuis ATCC 10708; conditions: Salmonella enterica
# Method: as §1, §2, §3, §4, §5, §6
# [9] = tested on: Aspergillus niger (An); experiment: MIC for Aspergillus niger, malt yeast agar; assay type: cell-based, Aspergillus niger ATCC 16404; conditions: read-out: Minimum Inhibitory Concentration (MIC), An
# Method: as §1, §7, §3, §8, §6
# [10] = tested on: Aureobasidium pullulan (Ap); experiment: MIC for Aureobasidium pullulan, malt yeast agar; assay type: cell-based, Aureobasidium pullulan ATCC 16622; conditions: read-out: Minimum Inhibitory Concentration (MIC), Ap
# Method: as §1, §7, §3, §8, §6
# [11] = tested on: Klebsiella pneumonias (Kp); experiment: MIC for Klebsiella pneumonias, nutrient agar; assay type: cell-based, Klebsiella pneumonias ATCC 8308
# Method: as §1, §2, §3, §4, §5, §6
# [12] = tested on: Pseudomonas aeruginosa (PRD-10); experiment: MIC for Pseudomonas aeruginosa PRD-10, nutrient agar; assay type: cell-based, Pseudomonas aeruginosa ATCC 15442
# Method: as §1, §2, §3, §4, §5, §6
# [13] = tested on: Fusarium oxysporum (Fo); experiment: MIC for Fusarium oxysporum, malt yeast agar; assay type: cell-based, Fusarium oxysporum ATCC 48112; conditions: read-out: Minimum Inhibitory Concentration (MIC), Fo
# Method: as §1, §7, §3, §8, §6
# [14] = tested on: Trichoderma viride (Tv); experiment: MIC for Trichoderma viride, malt yeast agar; assay type: cell-based, Trichoderma viride ATCC 8678; conditions: read-out: Minimum Inhibitory Concentration (MIC), Tv
# Method: as §1, §7, §3, §8, §6
# [15] = tested on: Saccharomyces cerevisiae; experiment: MIC for Saccharomyces cerevisiae, malt yeast agar; assay type: cell-based, Saccharomyces cerevisiae ATCC 4105; conditions: read-out: Minimum Inhibitory Concentration (MIC), Sc
# Method: as §1, §7, §3, §8, §6
# [16] = tested on: Bacillus subtilis (Bs); experiment: MIC for Bacillus subtilis, nutrient agar; assay type: cell-based, Bacillus subtilis ATCC 8473
# Method: as §1, §2, §3, §4, §5, §6
# [17] = malt yeast agar, 30° C., 72 hours for fungi
# [18] = malt yeast agar, 30° C., 48 hours for yeast
smiles,measurement,setting,value
"Cc1ccc(Cn2ncc3c(c2=O)SC(C#N)=C(C#N)S3)cc1 [K, 5,6-dihydro-6-((4-methylphenyl)methyl)-5-oxo-1,4-dithiino-(2,3-d)-pyridazine-2,3-dicarbonitrile]",MIC,"[1]; pH 6.8, nutrient agar, 30° C., 48 hours, read-out: Minimum Inhibitory Concentration (MIC), Ec",> 500 µg/mL
same,MIC,"[1]; pH 8.2, nutrient agar, 30° C., 48 hours, read-out: Minimum Inhibitory Concentration (MIC), Ec",> 500 µg/mL
same,MIC,"[2]; pH 6.8, nutrient agar, 30° C., 48 hours, read-out: Minimum Inhibitory Concentration (MIC), Sa",> 500 µg/mL
same,MIC,"[2]; pH 8.2, nutrient agar, 30° C., 48 hours, read-out: Minimum Inhibitory Concentration (MIC), Sa",> 500 µg/mL
same,MIC,[3]; [17],25 µg/mL
same,MIC,[4]; [18],25 µg/mL
same,MIC,"[5]; pH 6.8, nutrient agar, 30° C., 48 hours, read-out: Minimum Inhibitory Concentration (MIC), Pv",500 µg/mL
same,MIC,"[5]; pH 8.2, nutrient agar, 30° C., 48 hours, read-out: Minimum Inhibitory Concentration (MIC), Pv",> 500 µg/mL
same,MIC,"[6]; pH 6.8, 30° C.",> 500 µg/mL
same,MIC,"[6]; pH 8.2, 30° C.",> 500 µg/mL
same,MIC,"[7]; pH 6.8, nutrient agar, 30° C., 48 hours, read-out: Minimum Inhibitory Concentration (MIC), Ea",> 500 µg/mL
same,MIC,"[7]; pH 8.2, nutrient agar, 30° C., 48 hours, read-out: Minimum Inhibitory Concentration (MIC), Ea",> 500 µg/mL
same,MIC,"[8]; pH 6.8, nutrient agar, 30° C., 48 hours, read-out: Minimum Inhibitory Concentration (MIC), SC",> 500 µg/mL
same,MIC,"[8]; pH 8.2, nutrient agar, 30° C., 48 hours, read-out: Minimum Inhibitory Concentration (MIC), SC",> 500 µg/mL
same,MIC,[9]; [17],25 µg/mL
same,MIC,"[10]; malt yeast agar, 30° C., 48 hours for yeast and 72 hours for fungi",< 10 µg/mL
same,MIC,"[11]; pH 6.8, nutrient agar, 30° C., 48 hours, read-out: Minimum Inhibitory Concentration (MIC), Kp",> 500 µg/mL
same,MIC,"[11]; pH 8.2, nutrient agar, 30° C., 48 hours, read-out: Minimum Inhibitory Concentration (MIC), Kp",> 500 µg/mL
same,MIC,"[12]; pH 6.8, nutrient agar, 30° C., 48 hours, read-out: Minimum Inhibitory Concentration (MIC), PRD",> 500 µg/mL
same,MIC,"[12]; pH 8.2, nutrient agar, 30° C., 48 hours, read-out: Minimum Inhibitory Concentration (MIC), PRD",> 500 µg/mL
same,MIC,[13]; [17],25 µg/mL
same,MIC,[14]; [17],25 µg/mL
same,MIC,[15]; [18],25 µg/mL
same,MIC,"[16]; pH 6.8, nutrient agar, 30° C., 48 hours, read-out: Minimum Inhibitory Concentration (MIC), Bs",< 10 µg/mL
same,MIC,"[16]; pH 8.2, nutrient agar, 30° C., 48 hours, read-out: Minimum Inhibitory Concentration (MIC), Bs",100 µg/mL
"ClC=CC[N+]12CN3CN(CN(C3)C1)C2.[Cl-] [STANDARD I, 1-(3-chloroallyl)-3,5,7-triaza-1-azoniaadamantane chloride, reference compound]",MIC,"[1]; 48 h, pH 6.8, read-out: Minimum Inhibitory Concentration (MIC), Ec",100 µg/mL
same,MIC,"[1]; 48 h, pH 8.2, read-out: Minimum Inhibitory Concentration (MIC), Ec",250 µg/mL
same,MIC,"[2]; 48 h, pH 6.8, read-out: Minimum Inhibitory Concentration (MIC), Sa",100 µg/mL
same,MIC,"[2]; 48 h, pH 8.2, read-out: Minimum Inhibitory Concentration (MIC), Sa",250 µg/mL
same,MIC,[3]; 72 h,> 500 µg/mL
same,MIC,[4]; 48 h,> 500 µg/mL
same,MIC,"[5]; 48 h, pH 6.8, read-out: Minimum Inhibitory Concentration (MIC), Pv",50 µg/mL
same,MIC,"[5]; 48 h, pH 8.2, read-out: Minimum Inhibitory Concentration (MIC), Pv",250 µg/mL
same,MIC,"[6]; pH 6.8, 30° C.",100 µg/mL
same,MIC,"[6]; pH 8.2, 30° C.",> 500 µg/mL
same,MIC,"[7]; 48 h, pH 6.8, read-out: Minimum Inhibitory Concentration (MIC), Ea",100 µg/mL
same,MIC,"[7]; 48 h, pH 8.2, read-out: Minimum Inhibitory Concentration (MIC), Ea",250 µg/mL
same,MIC,"[8]; 48 h, pH 6.8, read-out: Minimum Inhibitory Concentration (MIC), SC",50 µg/mL
same,MIC,"[8]; 48 h, pH 8.2, read-out: Minimum Inhibitory Concentration (MIC), SC",100 µg/mL
same,MIC,[9]; 72 h,> 500 µg/mL
same,MIC,[10],> 500 µg/mL
same,MIC,"[11]; 48 h, pH 6.8, read-out: Minimum Inhibitory Concentration (MIC), Kp",50 µg/mL
same,MIC,"[11]; 48 h, pH 8.2, read-out: Minimum Inhibitory Concentration (MIC), Kp",250 µg/mL
same,MIC,"[12]; 48 h, pH 6.8, read-out: Minimum Inhibitory Concentration (MIC), PRD",100 µg/mL
same,MIC,"[12]; 48 h, pH 8.2, read-out: Minimum Inhibitory Concentration (MIC), PRD",500 µg/mL
same,MIC,[13]; 72 h,> 500 µg/mL
same,MIC,[14]; 72 h,> 500 µg/mL
same,MIC,[15]; 48 h,500 µg/mL
same,MIC,"[16]; 48 h, pH 6.8, read-out: Minimum Inhibitory Concentration (MIC), Bs",50 µg/mL
same,MIC,"[16]; 48 h, pH 8.2, read-out: Minimum Inhibitory Concentration (MIC), Bs",250 µg/mL
